Target: GacI-PP (Streptomyces glaucescens, UniProt B0B0T9)
Assay: LC-Q-TOF-MS of product V1P
Format: biochemical
Conditions: V1,7PP 1 mM, Tris-HCl 20 mM pH 7.5, 30 °C

## O=P(O)(O)OCC1=CC(OP(=O)(O)O)C(O)C(O)C1O (stereo not shown) [compound 8, V1,7PP]
  LC-Q-TOF-MS of product V1P; MESG/PNP initial velocity: The protein was then incubated with V1,7PP and the formation of V1P was confirmed
